Legend:
[1] = biological target: gatekeeper mutant RETV804M (Homo sapiens, UniProt P07949, V804M); experiment: RET/V804M kinase assay; details: biochemical assay; exact potency beyond measurable limit
Experimental: (§1) Suitable screening assays for RET and VEGFR2 small molecule kinase inhibitors (from a kinase-directed fragment (KDF) library) were established. The RET kinase assay utilizes an EZ Reader Electrophoresis Mobility Chip Instrument (Caliper Life Science). In the assay, 2 nM recombinant RET enzyme (Invitrogen) is pre-incubated with a small molecule inhibitor or control buffer for 30 min to allow the Type-II kinase inhibitor to trap the DFG-out conformation to which the inhibitors bind. This class of inhibitors is indirectly competitive with ATP, and slow binding kinetics (low kd) allow the inhibitors to appear non-competitive and pseudo-irreversible in nature. Because of the non-competitive nature of these inhibitors, a more biologically relevant concentration of ATP substrate (200 μM) was incorporated in this assay. After 30 min of pre-incubation, a substrate mix containing […], 20 mM MgCl2 and 1.5 μM fluorescently labeled RET substrate peptide (Caliper LS, peptide 22; Perkin Elmer, USA) was added. The conversion level of the RET substrate peptide was then determined utilizing the EZ Reader instrument. Similarly, VEGFR2 and RET/V804M kinase assays have also been established using the same peptide substrate.

[2] = biological target: T1, RET wild type (Homo sapiens, UniProt P07949); experiment: RET biochemical assay (EZ Reader mobility shift); details: 30 min pre-incubation, 200 μM ATP, exact potency beyond measurable limit
T1 construct: purchased Invitrogen
T1 sequence (P07949 724-1016 limits assumed): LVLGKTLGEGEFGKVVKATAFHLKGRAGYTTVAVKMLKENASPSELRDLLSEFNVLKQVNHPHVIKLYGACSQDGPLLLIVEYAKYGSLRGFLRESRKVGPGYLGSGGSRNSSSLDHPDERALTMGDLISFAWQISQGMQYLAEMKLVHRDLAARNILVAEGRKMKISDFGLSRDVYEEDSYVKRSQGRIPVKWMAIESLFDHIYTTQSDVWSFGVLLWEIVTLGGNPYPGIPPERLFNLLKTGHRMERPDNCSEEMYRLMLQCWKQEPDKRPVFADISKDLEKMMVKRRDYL
Experimental: as §1, with “Similarly, VEGFR2 and RET/V804M kinase assays have also been established using the same peptide substrate.” left out
The RET kinase assay utilizes a microfluidics based instrument for direct kinase activity readout (Caliper Life Science). […] The conversion level of the RET substrate peptide was determined utilizing the EZ Reader instrument. […]

[3] = biological target: T2, RET/C634R-V804M (Homo sapiens, UniProt P07949, C634R/V804M); experiment: RET auto-phosphorylation immunoblot in transfected HEK293 cells; type: cell-based; details: 1 nM, 2 hrs, cells expressing RET/C634R-V804M
T2 construct: expressed in transfected cells; host or cells: HEK293
T2 sequence (P07949 29-1072 isoform P07949-2 C634R/V804M limits assumed): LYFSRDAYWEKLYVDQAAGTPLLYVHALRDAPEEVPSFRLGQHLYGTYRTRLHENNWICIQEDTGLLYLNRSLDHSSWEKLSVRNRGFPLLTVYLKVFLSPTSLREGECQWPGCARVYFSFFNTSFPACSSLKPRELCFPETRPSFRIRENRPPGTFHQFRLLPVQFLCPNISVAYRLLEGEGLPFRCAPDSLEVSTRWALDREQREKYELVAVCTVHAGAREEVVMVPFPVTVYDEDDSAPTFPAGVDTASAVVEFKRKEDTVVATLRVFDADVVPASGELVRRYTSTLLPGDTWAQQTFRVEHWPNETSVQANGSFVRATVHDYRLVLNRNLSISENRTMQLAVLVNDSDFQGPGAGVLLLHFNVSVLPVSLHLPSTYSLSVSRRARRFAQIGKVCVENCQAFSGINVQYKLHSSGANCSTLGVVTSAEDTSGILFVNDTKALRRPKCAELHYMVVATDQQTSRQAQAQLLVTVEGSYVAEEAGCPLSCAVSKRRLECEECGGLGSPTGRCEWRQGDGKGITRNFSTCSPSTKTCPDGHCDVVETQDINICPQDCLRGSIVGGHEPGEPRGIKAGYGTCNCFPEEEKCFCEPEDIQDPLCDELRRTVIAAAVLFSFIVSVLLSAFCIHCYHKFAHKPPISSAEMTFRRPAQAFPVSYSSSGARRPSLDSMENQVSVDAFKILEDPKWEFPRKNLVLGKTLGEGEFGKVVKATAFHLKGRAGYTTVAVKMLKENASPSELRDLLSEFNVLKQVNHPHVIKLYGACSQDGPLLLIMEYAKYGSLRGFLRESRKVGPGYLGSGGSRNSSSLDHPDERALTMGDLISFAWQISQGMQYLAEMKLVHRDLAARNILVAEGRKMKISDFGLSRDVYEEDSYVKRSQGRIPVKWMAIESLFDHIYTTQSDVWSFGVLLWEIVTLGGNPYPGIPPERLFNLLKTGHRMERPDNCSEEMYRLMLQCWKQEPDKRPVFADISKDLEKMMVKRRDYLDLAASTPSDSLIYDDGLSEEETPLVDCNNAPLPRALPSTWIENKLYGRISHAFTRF
Description: FIG. 2: Photographs of blots showing inhibition of phosphorylation of gate-keeper RET point mutant and rearranged RET oncoproteins by Pz-1 or vehicle (NT: not treated). HEK293 cells were transiently transfected with vectors expressing RET/C634R-V804M mutant (V804 is the gate-keeper RET residue), or RET/PTC1 (CCDC6-RET, found in papillary thyroid carcinoma and lung adenocarcinoma), RET/PTC3 (NCOA4-RET, found in papillary thyroid carcinoma and lung adenocarcinoma), or KIF5B-RET (found in lung adenocarcinoma). After 36 hr from transfection, cells were serum-starved for 12 hr and then treated for 2 hr with indicated concentrations of Pz-1. 50 μg of total cell lysates were subjected to immunoblotting with anti-phospho-Y1062 (αp1062) and anti-phospho-Y905 (αp905) RET antibodies. The blots were normalized using anti-RET (αRET) antibody.
The inhibition of RET auto-phosphorylation by Pz-1 was measured in several different cell lines including NIH3T3 fibroblasts expressing RET/C634Y or RET/M918T, TT expressing RET/C634W (MTC), Nthy-ory-3-1 (thyroid, non-transformed with RET; negative control), HEK293/RET/PTC1 (CCDC6-RET that can be found in PTC & lung cancer), HEK293/RET-KIF5B (that can be found in lung cancer), HEK293/RET/PTC3 (NCOA4-RET, that can be found in PTC & lung cancer), and HEK293 transfected with RET/C634R-V804M (FIGS. 1-3). […]

Chain of gatekeeper mutant RETV804M (P07949 29-1114 V804M): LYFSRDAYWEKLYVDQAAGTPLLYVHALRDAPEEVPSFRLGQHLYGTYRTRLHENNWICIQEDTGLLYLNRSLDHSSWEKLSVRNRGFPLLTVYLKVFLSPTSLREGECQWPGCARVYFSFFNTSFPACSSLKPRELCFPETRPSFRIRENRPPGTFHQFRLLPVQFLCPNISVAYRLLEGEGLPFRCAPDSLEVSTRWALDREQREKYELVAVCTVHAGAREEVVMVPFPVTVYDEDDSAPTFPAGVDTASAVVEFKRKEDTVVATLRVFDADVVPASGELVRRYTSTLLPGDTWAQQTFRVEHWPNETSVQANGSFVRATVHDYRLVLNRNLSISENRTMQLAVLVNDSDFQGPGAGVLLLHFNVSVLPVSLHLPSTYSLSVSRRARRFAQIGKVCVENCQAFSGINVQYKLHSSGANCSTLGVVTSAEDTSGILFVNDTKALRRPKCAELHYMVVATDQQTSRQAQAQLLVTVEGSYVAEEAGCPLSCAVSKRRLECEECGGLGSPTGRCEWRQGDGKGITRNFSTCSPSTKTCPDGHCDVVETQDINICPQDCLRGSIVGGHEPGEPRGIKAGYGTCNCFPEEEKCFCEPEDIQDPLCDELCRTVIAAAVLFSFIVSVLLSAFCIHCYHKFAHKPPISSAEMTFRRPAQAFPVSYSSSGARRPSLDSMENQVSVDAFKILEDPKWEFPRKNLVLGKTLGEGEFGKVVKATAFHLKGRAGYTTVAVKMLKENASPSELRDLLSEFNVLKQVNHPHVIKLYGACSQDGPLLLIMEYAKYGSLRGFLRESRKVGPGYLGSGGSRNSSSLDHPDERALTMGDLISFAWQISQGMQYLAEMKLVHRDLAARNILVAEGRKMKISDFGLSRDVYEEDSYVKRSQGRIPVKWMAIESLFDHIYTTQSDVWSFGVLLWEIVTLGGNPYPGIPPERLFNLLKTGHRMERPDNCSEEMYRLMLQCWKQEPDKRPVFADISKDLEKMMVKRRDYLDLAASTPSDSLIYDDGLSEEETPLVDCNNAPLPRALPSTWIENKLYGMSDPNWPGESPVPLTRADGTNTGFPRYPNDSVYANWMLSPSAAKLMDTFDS

Cn1cc(-c2ccc3c(c2)ncn3-c2ccc(CC(=O)Nc3cc(C(C)(C)C)on3)cc2)cn1 [Pz-1, N-(5-(tert-butyl)isoxazol-3-yl)-2-(4-(5-(1-methyl-1H-pyrazol-4-yl)-1H-benzo[d]imidazol-1-yl)phenyl)acetamide]
IC50 [1]: < 1 nM | IC50 [2]: < 1 nM | inhibition of pRET [3]: strongly inhibited

— patent US9988371B2, “Benzimidazole analogues and related methods” (The Arizona Board of Regents, on Behalf of the University …, priority 2014, dated 2018)
